Laboratory results taken from the supplement of paper PMC10307832.

What was measured:
Test in all cases: relative viability (nuclei count vs DMSO), 5 days (fraction); higher = more cells survive
[1] = compound: CC1=C(C=C(C=C1)NC(=O)C2=CC(=CC=C2)C(C)(C)C#N)NC3=CC4=C(C=C3)N=CN(C4=O)C [AZ628] + CC(=O)Nc1cccc(-n2c(=O)n(C3CC3)c(=O)c3c(Nc4ccc(I)cc4F)n(C)c(=O)c(C)c32)c1 [Trametinib] (partner 0.02 µM)
How it was run: (§1)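 Five library-drug doses in √10 steps were combined with a fixed anchor-drug dose, or a single drug was given alone, by pin tool to lung cancer cell lines in 1536-well plates the day after seeding. Nuclei were stained and counted after 5 days. Relative viability is the nuclei count in treated wells over that in vehicle wells, taken as the median of duplicate plates.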

[2] = compound: C1CC2=C(C1)C=C(C=C2)OC3=NC(=C4C(=N3)N(C=N4)CC5=CC=C(C=C5)C6=CC=CC=C6)N[C@@H](CC7=CC=CC=C7)CO [QS11] + CC1(C)CCC(c2ccc(Cl)cc2)=C(CN2CCN(c3ccc(C(=O)NS(=O)(=O)c4ccc(N[C@H](CCN5CCOCC5)CSc5ccccc5)c(S(=O)(=O)C(F)(F)F)c4)cc3)CC2)C1 [Navitoclax] (partner 0.5 µM)
How it was run: as §1

[3] = compound: CC1=C(C=C(C=C1)NC(=O)C2=CC(=CC=C2)C(C)(C)C#N)NC3=CC4=C(C=C3)N=CN(C4=O)C [AZ628] + O=C(c1cc(Cc2n[nH]c(=O)c3ccccc23)ccc1F)N1CCN(C(=O)C2CC2)CC1 [Olaparib] (partner 8 µM)
How it was run: as §1

[4] = compound: C1CC2=C(C1)C=C(C=C2)OC3=NC(=C4C(=N3)N(C=N4)CC5=CC=C(C=C5)C6=CC=CC=C6)N[C@@H](CC7=CC=CC=C7)CO [QS11] + Cc1nc(NC(=O)N2CCC[C@H]2C(N)=O)sc1-c1ccnc(C(C)(C)C(F)(F)F)c1 [Alpelisib] (partner 2 µM)
How it was run: as §1

Row | Cell Line | relative viability ([1]; first compound 0.08 µM) | relative viability ([1]; first compound 0.253 µM) | relative viability ([1]; first compound 0.8 µM) | relative viability ([1]; first compound 2.53 µM) | relative viability ([1]; first compound 8 µM) | relative viability ([2]; first compound 0.08 µM) | relative viability ([2]; first compound 0.253 µM) | relative viability ([2]; first compound 0.8 µM) | relative viability ([2]; first compound 2.53 µM) | relative viability ([2]; first compound 8 µM) | relative viability ([3]; first compound 0.08 µM) | relative viability ([3]; first compound 0.253 µM) | relative viability ([3]; first compound 0.8 µM) | relative viability ([3]; first compound 2.53 µM) | relative viability ([3]; first compound 8 µM) | relative viability ([4]; first compound 0.08 µM) | relative viability ([4]; first compound 0.253 µM) | relative viability ([4]; first compound 0.8 µM) | relative viability ([4]; first compound 2.53 µM) | relative viability ([4]; first compound 8 µM)
1 | SK-LU-1 | 0.325 | 0.323 | 0.257 | 0.248 | 0.248 | 0.795 | 0.871 | 0.646 | 0.487 | 0.479 | 0.376 | 0.37 | 0.44 | 0.379 | 0.315 | 1.14 | 0.934 | 0.917 | 0.774 | 0.712
2 | NCI-H2085 | 0.502 | 0.479 | 0.628 | 0.601 | 0.481 | 1.18 | 1.17 | 1.08 | 1.29 | 1.41 | 0.805 | 0.756 | 0.895 | 0.865 | 0.703 | 0.922 | 1 | 1.02 | 1.06 | 1.12
3 | NCI-H1395 | 0.954 | 0.739 | 0.794 | 0.732 | 0.776 |  | 1.09 | 1.31 | 1.45 | 1.02 | 0.478 | 0.458 | 0.443 | 0.461 | 0.447 |  | 1.2 | 1.12 | 0.912 | 1.53
4 | NCI-H1666 | 0.758 | 0.697 | 0.841 | 0.6 | 0.777 | 1.04 | 0.868 | 0.932 | 0.55 | 0.472 | 0.733 | 0.745 | 0.671 | 0.739 | 0.782 | 0.917 | 1.03 | 0.708 | 0.587 | 0.382
5 | NCI-H647 | 0.277 | 0.233 | 0.22 | 0.22 | 0.22 | 1.28 | 1.12 | 1.07 | 1.13 | 1.1 | 0.848 | 0.616 | 0.495 | 0.551 | 0.573 | 1.24 | 1.25 | 1.02 | 1.08 | 0.862
6 | A-427 | 0.462 | 0.407 | 0.353 | 0.395 | 0.407 | 0.992 | 1.02 |  | 1.02 | 1.01 | 0.85 | 0.73 | 0.773 | 0.691 | 0.541 | 1.03 | 1.16 |  | 1.06 | 1.11
7 | NCI-H1915 | 0.139 | 0.128 | 0.109 | 0.144 | 0.0954 | 0.816 | 0.805 |  | 0.865 | 0.868 | 0.256 | 0.229 | 0.232 | 0.26 | 0.168 | 1.06 | 1.16 |  | 1.06 | 0.999
8 | NCI-H1355 | 0.384 | 0.303 | 0.28 | 0.292 | 0.286 | 0.876 | 0.869 | 0.791 | 1.03 | 0.881 | 0.73 | 0.784 | 0.684 | 0.745 | 0.574 | 0.776 | 0.748 | 0.779 | 0.689 | 0.763
9 | HCC-15 | 0.334 | 0.291 | 0.272 | 0.25 | 0.243 | 0.728 | 0.795 |  | 0.877 | 0.782 | 0.712 | 0.747 | 0.737 | 0.738 | 0.53 | 0.749 | 1.01 |  | 0.936 | 0.731
10 | HCC-78 | 0.613 | 0.424 | 0.377 | 0.375 | 0.46 | 0.802 | 0.797 | 0.756 | 0.841 | 0.818 | 0.94 | 0.808 | 0.807 | 0.786 | 0.903 | 0.411 | 0.31 | 0.401 | 0.43 | 0.321
11 | NCI-H23 | 0.178 | 0.29 | 0.211 | 0.191 | 0.23 | 0.818 | 0.863 | 0.872 | 0.75 | 0.692 | 0.316 | 0.312 | 0.331 | 0.227 | 0.216 | 0.647 | 0.638 | 0.557 | 0.508 | 0.69
12 | NCI-H838 | 0.491 | 0.466 | 0.486 | 0.477 | 0.556 | 1.11 | 1.1 | 0.755 | 1.2 | 1.02 | 0.765 | 0.821 | 0.713 | 0.727 | 0.623 | 1.1 | 0.954 | 0.755 | 0.919 | 0.884
13 | NCI-H1793 | 0.388 | 0.332 | 0.282 | 0.198 | 0.206 | 0.393 | 0.482 | 0.38 | 0.436 | 0.404 | 0.971 | 0.805 | 0.717 | 0.819 | 0.445 | 0.719 | 0.645 | 0.637 | 0.827 | 0.791
14 | COR-L23 | 0.292 | 0.237 | 0.271 | 0.211 | 0.271 | 1.06 | 0.922 | 0.818 | 0.865 | 0.761 | 0.459 | 0.365 | 0.444 | 0.448 | 0.317 | 0.828 | 0.665 | 0.698 | 0.589 | 0.617
15 | SW 1573 | 0.443 | 0.346 | 0.334 | 0.3 | 0.329 | 0.937 | 0.795 | 0.9 | 0.842 | 0.564 | 0.462 | 0.423 | 0.365 | 0.374 | 0.346 | 0.844 | 0.656 | 0.772 | 0.741 | 0.718
16 | HARA | 0.209 | 0.168 | 0.15 | 0.172 | 0.356 | 1.17 | 1.21 |  | 1.21 | 1.35 | 0.762 | 0.764 | 0.869 | 0.84 | 0.51 | 0.691 | 0.944 |  | 0.872 | 0.917
